Converted amounts (≈) assume the structure as drawn.
How the values were obtained:
Pseudomonas aeruginosa = experiment: Antibacterial activity against Pseudomonas aeruginosa after 24 hrs by MTT method; type: functional, organism-based
Bacillus subtilis = experiment: Antibacterial activity against Bacillus subtilis after 24 hrs by MTT method; type: functional, organism-based
[1] = Cytotoxicity against human macrophages assessed as drug level causing microscopically detectable alteration in normal cell morphology after 24 hrs by MTT assay; type: cell-based, Macrophage
[2] = target: T1, Beta-ketoacyl-[acyl-carrier-protein] synthase III (Escherichia coli K-12, UniProt P0A6R0); experiment: Inhibition of Escherichia coli FabH
T1 sequence (P0A6R0 whole entry): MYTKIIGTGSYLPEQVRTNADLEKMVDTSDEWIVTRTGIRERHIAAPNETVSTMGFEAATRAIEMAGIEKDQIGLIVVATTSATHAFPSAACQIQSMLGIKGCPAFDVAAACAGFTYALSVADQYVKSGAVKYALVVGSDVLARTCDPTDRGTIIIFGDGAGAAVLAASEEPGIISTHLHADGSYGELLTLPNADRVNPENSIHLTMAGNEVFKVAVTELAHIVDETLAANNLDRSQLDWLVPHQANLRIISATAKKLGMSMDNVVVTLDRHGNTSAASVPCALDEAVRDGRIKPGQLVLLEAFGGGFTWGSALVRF

Escherichia coli = experiment: Antibacterial activity against Escherichia coli after 24 hrs by MTT method; type: functional, organism-based
Bacillus thuringiensis = experiment: Antibacterial activity against Bacillus thuringiensis after 24 hrs by MTT method; type: functional, organism-based

Structure (SMILES) | IC50 (Pseudomonas aeruginosa) [mg/L] | IC50 (Bacillus subtilis) [mg/L] | CC50 at 24 h [1] [mg/L] | IC50 [2] [µM] | IC50 (Escherichia coli) [mg/L] | IC50 (Bacillus thuringiensis) [mg/L]
Cc1ncc([N+](=O)[O-])n1CCOc1ccc(/C=N/Nc2nc(-c3ccccc3Br)cs2)cc1 | 20.6 (≈ 39.1 µM) | 27.6 (≈ 52.3 µM) | 322 | 4.9 | 26.9 (≈ 51 µM) | 88.4 (≈ 168 µM)
Cc1ncc([N+](=O)[O-])n1CCOc1ccc(/C=N\NC(N)=S)cc1 | 98.3 (≈ 282 µM) | 103 (≈ 296 µM) | – | – | 111 (≈ 318 µM) | 88.4 (≈ 254 µM)
Cc1ncc([N+](=O)[O-])n1CCOc1cccc(/C=N\NC(N)=S)c1 | 85.6 (≈ 246 µM) | 96.3 (≈ 276 µM) | – | – | 89.7 (≈ 257 µM) | 78.6 (≈ 226 µM)
Cc1ncc([N+](=O)[O-])n1CCOc1ccc(/C=N/Nc2nc(-c3ccccc3)cs2)cc1 | 38.2 (≈ 85.2 µM) | 13.1 (≈ 29.2 µM) | 467 | 5.2 | 38.3 (≈ 85.4 µM) | 15.5 (≈ 34.6 µM)
COc1ccc(-c2csc(N/N=C/c3ccc(OCCn4c([N+](=O)[O-])cnc4C)cc3)n2)cc1 | 6.3 (≈ 13.2 µM) | 19.4 (≈ 40.5 µM) | 268 | 6.1 | 50.8 (≈ 106 µM) | 26.2 (≈ 54.8 µM)
Cc1ncc([N+](=O)[O-])n1CCOc1ccc(/C=N/Nc2nc(-c3ccc(Br)cc3)cs2)cc1 | 85.3 (≈ 162 µM) | 98.8 (≈ 187 µM) | – | 6.2 | 43.3 (≈ 82.1 µM) | 66.9 (≈ 127 µM)
Cc1ncc([N+](=O)[O-])n1CCOc1ccc(/C=N/Nc2nc(-c3ccc(C(F)(F)F)cc3)cs2)cc1 | 98 (≈ 190 µM) | 32.8 (≈ 63.5 µM) | 218 | 7.2 | 41.2 (≈ 79.8 µM) | 78.8 (≈ 153 µM)
Cc1ncc([N+](=O)[O-])n1CCOc1cccc(/C=N/Nc2nc(-c3ccccc3)cs2)c1 | 21.6 (≈ 48.2 µM) | 118 (≈ 264 µM) | – | 8.6 | 48.6 (≈ 108 µM) | 53.7 (≈ 120 µM)
COc1ccc(-c2csc(N/N=C/c3cccc(OCCn4c([N+](=O)[O-])cnc4C)c3)n2)cc1 | 10.8 (≈ 22.6 µM) | 1.9 (≈ 3.97 µM) | 238 | 9.2 | 28.8 (≈ 60.2 µM) | 5.9 (≈ 12.3 µM)
Cc1ncc([N+](=O)[O-])n1CCOc1cccc(/C=N/Nc2nc(-c3ccc(Br)cc3)cs2)c1 | 83.9 (≈ 159 µM) | 117 (≈ 223 µM) | – | 20.8 | 98.3 (≈ 186 µM) | 98 (≈ 186 µM)
Cc1ncc([N+](=O)[O-])n1CCOc1cccc(/C=N/Nc2nc(-c3ccc(C(F)(F)F)cc3)cs2)c1 | 3.6 (≈ 6.97 µM) | 3.7 (≈ 7.16 µM) | 517 | 13.5 | 48.8 (≈ 94.5 µM) | 73 (≈ 141 µM)
Cc1ncc([N+](=O)[O-])n1CCOc1cccc(/C=N/Nc2nc(-c3ccccc3Br)cs2)c1 | 67.7 (≈ 128 µM) | 15.5 (≈ 29.4 µM) | – | 36.2 | 75.2 (≈ 143 µM) | 58.7 (≈ 111 µM)
NC[C@H]1O[C@H](O[C@H]2[C@H](O)[C@@H](O[C@H]3O[C@H](CO)[C@@H](O)[C@H](N)[C@H]3O)[C@H](N)C[C@@H]2N)[C@H](O)[C@@H](O)[C@@H]1O [KANAMYCIN] | – | – | – | 6.8 | 46.3 (≈ 95.6 µM) | –

Reference: ChEMBL document CHEMBL3352486, “Design, synthesis and biological evaluation of metronidazole-thiazole derivatives as antibacterial inhibitors” (Bioorg Med Chem Lett, 2014)
